This is an account of results in US10813941B2, “Methods and compounds for treating malaria” (THE GEORGE WASHINGTON UNIVERSITY, A CONGRESSIONALLY …, priority 2016, dated 2020).

Read-outs that look alike come from different tables or passages of the source. Where only a bound is given, the exact number is not on record here.

The subject of data set [1] is P. falciparum 7G8. In words: P. falciparum growth inhibition assay, strain 7G8. The data set is classed as cell-based, Plasmodium falciparum. Particulars: P. falciparum 7G8 (quinine, chloroquine, and pyrimethamine resistant), 72 h. The method, then: (§1) Asynchronous P. falciparum cultures were diluted to 1% parasitemia and were treated with FR900098 analogs at concentrations ranging from 0.25 ng/ml-100 μg/ml. Growth inhibition assays were performed in opaque 96-well plates at 100 μl culture volume. After 3 days, parasite growth was quantified by measuring DNA content using PicoGreen (Life Technologies), as described. Fluorescence was measured on a FLUOstar Omega microplate reader (BMG Labtech) at 485 nm excitation and 528 nm emission. Half maximal inhibitory concentration (IC50) values were calculated by nonlinear regression analysis using GraphPad Prism software. For isopentenyl pyrophosphate (IPP) (Echelon) rescue experiments, 250 μM IPP was added to the appropriate wells for the duration of the experiment.

For data set [2], the system named is P. falciparum D10. In words: P. falciparum growth inhibition assay, strain D10. The format is cell-based, Plasmodium falciparum. The conditions noted are these: P. falciparum D10 (mefloquine resistant), 72 h. The method, then: as §1
In data set [3] the test system is P. falciparum K1. In words: P. falciparum growth inhibition assay, strain K1. The format is cell-based, Plasmodium falciparum. Particulars: P. falciparum K1 (chloroquine and sulfadoxine-pyrimethamine resistant), 72 h. From the text: (§2) P. falciparum strains were obtained through the MR4 as part of the BEI Resources Repository, NIAID NIH (www.mr4.org): Plasmodium falciparum 3D7 (wild-type, WT), Plasmodium falciparum K1 (MRA-159; chloroquine and sulfadoxine-pyrimethamine resistant) deposited by D E Kyle, and Plasmodium falciparum IPC 5202 Battambang Cambodia 2011 (MRA-1240; chloroquine and artemisinin resistant) deposited by Didier Menard at the Institut Pasteur du Cambodge. The P. falciparum mutant containing increased levels of MEP pathway metabolites had1 (MRA-1257), and its compliment had1+PfHad1-GFP (MRA-1258), were generated in strain 3D7 as reported (BEI Resources; Guggisburg 2014). […]
(§3) Asynchronous P. falciparum cultures were diluted to 1% parasitemia and were treated with FR900098 analogs at concentrations ranging from 0.25 ng/ml-100 μg/ml. […] After 3 days, parasite growth was quantified by measuring DNA content using PicoGreen (Life Technologies), as described. Fluorescence was measured on a FLUOstar Omega microplate reader (BMG Labtech) at 485 nm excitation and 528 nm emission. Half maximal inhibitory concentration (IC50) values were calculated by nonlinear regression analysis using GraphPad Prism software. […]

The test system of data set [4] is P. berghei ANKA. Nature of the data set: Mouse model of malaria, P. berghei asexual blood stages (luciferase). The data set is classed as in vivo, Swiss Webster mice. The method, then: In vivo testing of RCB-185 against intraerythrocytic P. berghei parasites was performed by the Anti-Infectives Screening Core at NYU School of Medicine. Briefly, groups of 5-7 female Swiss Webster mice weighing 25-30 g were infected via intraperitoneal injection with 10^3 transgenic P. berghei ANKA that express a fusion GFP (mutant 3) and firefly luciferase (LucIAV) fusion under the control of the constitutive eeflaα promoter that is stably integrated into the 230p locus (PbGFP-Luccon). Two days post-infection, mice were treated by intraperitoneal injection with 50 mg/kg of the test compound RCB-185 or 20 mg/kg chloroquine or 2% methyl cellulose, 0.5% tween-80 as positive and vehicle controls, respectively. Treatment continued once a day for 5 days. At 7 days post-infection, mice were administered 2.5% isofluorane via a nose cone, and once anesthesized, were injected i.p. with 150 mg/kg of D-Luciferin Potassium-salt (Goldbio) dissolved in PBS. Mice were imaged 5-10 min after injection of luciferin with an IVIS 100 (Xenogen, Alameda, Calif.) and data acquisition and analysis were performed with Livinglmage (Xenogen) to quantify the level of infection. To test for significance between vehicle- and RCB-185-treated mice, a t-test was used (VassarStats).

Data set [5] deals with P. falciparum strain 3D7. In words: IPP rescue of growth inhibition. The format is cell-based, Plasmodium falciparum. The conditions noted are these: 250 μM IPP; RCB-185 1.2 nM-590.5 nM. The method, then:
as §1

Data set [6] relates to P. falciparum had1 (PfHad1 loss-of-function strain). In words: microbe, parasite or virus in culture. The format is cell-based, Plasmodium falciparum.
From the text: (§4) P. falciparum strains were obtained through the MR4 as part of the BEI Resources Repository, NIAID NIH (www.mr4.org): Plasmodium falciparum 3D7 (wild-type, WT), Plasmodium falciparum K1 (MRA-159; chloroquine and sulfadoxine-pyrimethamine resistant) deposited by D E Kyle, and Plasmodium falciparum IPC 5202 Battambang Cambodia 2011 (MRA-1240; chloroquine and artemisinin resistant) deposited by Didier Menard at the Institut Pasteur du Cambodge. The P. falciparum mutant containing increased levels of MEP pathway metabolites had1 (MRA-1257), and its compliment had1+PfHad1-GFP (MRA-1258), were generated in strain 3D7 as reported (BEI Resources; Guggisburg 2014). Parasites were cultured in a 2% suspension of human erythrocytes and RPMI 1640 (Sigma) medium supplemented with 27 mM sodium bicarbonate, 11 mM glucose, 5 mM HEPES, 1 mM sodium pyruvate, 0.37 mM hypoxanthine, 0.01 mM thymidine, 10 μg/ml gentamicin, and 0.5% albumax (Gibco) at 37° C., 5% O2/5% CO2/90% N2 atmosphere as previously described (Zhang 2011).
as §1

Data set [7] relates to MEP pathway in P. falciparum strain 3D7. Nature of the data set: MEP pathway metabolite levels by LC-MS/MS. The data set is classed as cell-based, Plasmodium falciparum. The conditions noted are these: for reduction in MEcPP levels: 10 h. The protocol:
P. falciparum strain 3D7 was cultured at 37° C. in 30 ml volumes in 100 mm tissue culture dishes (Techno Plastic Products) at 4% hematocrit until >8% parasitemia. […] Cultures were then lysed with 5% saponin, the parasite pellets washed with 1× phosphate-buffered saline (PBS), and the pellets stored at −80° C. Samples were extracted via addition of 600 μl of ice-cold extraction solvent [chloroform, methanol, and acetonitrile (2:1:1, v/v/v)] and two liquid nitrogen-cooled 3.2 mm stainless steel beads, followed by homogenization in the Tissue-Lyser II instrument (Qiagen, Valencia, Calif.) at 20 Hz for 5 min in a cold sample rack. Ice-cold water (600 μl) was added, and samples were homogenized for an additional 5 min at 20 Hz. After centrifugation (14,000 rcf at 4° C. for 5 min), the polar upper phase was aspirated and lyophilized. Dried samples were dissolved in 100 μl water and analyzed by LC-MS/MS.
The 4000QTRAP LC-MS/MS system (AB Sciex) was used in multiple-reaction monitoring (MRM) mode using negative ionization. The detailed instrument configuration and compound-dependent parameters for isoprenoid precursors were as previously described (Zhang 2011). LC separation prior to MRM detection was achieved by ion pair reverse-phase chromatography as described previously, with 10 mM tributylammonium acetate (pH 5.1-5.5) used as the ion pair reagent and the following modifications: (1) RP-hydro 100 mm×2.0 mm, 2.5 μm high performance liquid chromatography column (Phenomenex), (2) flow rate of 0.14 ml/min, (3) solvent A of 10 mM tributylammonium acetate in 5% methanol, (4) binary LC gradient (20% solvent B (100% methanol) from 0 to 2.5 min, 30% B for 12.5 min, 80% B for 5 min, and column equilibration at for 5 min), and (5) autosampler injection volume of 20 μl. For DOXP and MEcPP metabolites, one-way ANOVA was used to test for significance (VassarStats). A t-test was used to test for significance between UNT and 1× RCB-185 CDP-ME levels (VassarStats).

Data set [8] concerns P. falciparum Battambang. In words: P. falciparum growth inhibition assay, strain Battambang. The data set is classed as cell-based, Plasmodium falciparum. Particulars: P. falciparum Battambang (chloroquine and artemisinin resistant), 72 h.
From the text: as §2, §3

Data set [9] relates to P. falciparum 3D7. Nature of the data set: P. falciparum growth inhibition assay (PicoGreen, 72 h), strain 3D7. The data set is classed as cell-based, Plasmodium falciparum.
From the text: as §4, §1

Data set [10] concerns P. falciparum strain NF54 gametocytes. Nature of the data set: Gametocyte assay (flow cytometry). The format is cell-based, Plasmodium falciparum. The conditions noted are these: 72 h, 5 μM to 0.001 μM. The protocol: The next day, the parasites were resuspended at 10% gametocytemia, and 2% hematocrit.
A 96-well plate was prepared with 2× concentration of RCB-185 ranging 10 μM to 0.002 μM in complete RPMI with 1% DMSO as well as a positive control, 65 nM epoxomicin, and a negative control, 1% DMSO. Percoll purified NF54 strain P. falciparum gametocytes were added to individual wells at 2% hematocrit and 10% parasitemia in a 1:1 dilution, resulting in a final 1% hematocrit and a two-fold dilution of RCB-185 for a final concentration range of 5 μM to 0.001 μM and a final 0.5% DMSO, 32.5 nM epoxomicin. The plate was gassed with 90% N2, 5% O2, 5% CO2 and incubated at 37° C. with compound for 72 h. Following incubation, cells were analyzed using flow cytomtetry as described below.
Cells were incubated at a final 0.1% hematocrit in 50 nM DiIC(1)5 with buffer containing 1.67 mg/ml glucose, 8 mg/mL NaCl, 8 mM Tris-Cl (pH 7.4) and incubated at 37° C. for 20-30 minutes prior to analysis on BD Accuri C6 flow cytometer. Uninfected RBCs and unstained P. falciparum infected RBCs were incubated with MitoProbe DiIC1(5) as controls to determine the threshold for MitoProbe DiIC1(5) (640 nm laser excitation and FL4 emission filter [675/25 nm]) positive, single, and intact cell populations. One-way ANOVA was used to test for significance between the three treatment groups (VassarStats).

Data set [11] concerns P. falciparum had1+HAD1-GFP. In words: P. falciparum growth inhibition assay, complemented strain had1+HAD1-GFP. The format is cell-based, Plasmodium falciparum. Particulars: had1 mutant supplied with WT copy of had1, FIG. 3 panel B.
From the text: as §2, §3

Data set [12] deals with P. falciparum D6. Nature of the data set: P. falciparum growth inhibition assay, strain D6. Particulars: P. falciparum D6 (mefloquine resistant), 72 h. The data set is classed as cell-based, Plasmodium falciparum. The protocol:
as §1

The conditions of data set [13]: rat, oral administration; cited from earlier work.
The conditions of data set [14]: cited from earlier work.
For data set [15] the following is noted: mouse, oral administration; cited from earlier work.
Data set [16] has as its system P. falciparum. The conditions noted are these: cited from earlier work.
Setting [17] is: Plasmodium falciparum, P. falciparum 3D7 (pan-sensitive, lab adapted), asynchronous, 72 h, mean±SEM.

With `CC(=O)N(O)C/C=C/P(=O)(OCOC(=O)C(C)(C)C)OCOC(=O)C(C)(C)C` [RCB-185], the IC50 in [1] came out at 46.7 ± 10.9 nM; in data set [2], 42.5 ± 11.5 nM; in [3], 31.9 ± 1 nM; in data set [6] (had1 mutant (FSM-resistant), FIG. 3, mean±SEM, read-out: IC50), 76.5 ± 18.5 nM; in [8], 21.1 ± 1.8 nM; in [9] (P. falciparum 3D7 (pan-sensitive, lab adapted), asynchronous, 72 h, mean±SEM), 18.3 ± 1.9 nM. For the same compound, the IC50 in data set [9] (parent strain 3D7 (WT) in had1 comparison, FIG. 3, mean±SEM) was found to be 19.9 ± 4.2 nM; in [11], 26 ± 6.4 nM; in data set [12] it was 37.6 ± 10 nM. In [4] (50 mg/kg i.p. once a day), the “adverse effects in mice” value is on record as “no adverse effects were observed”. The “drop in parasite load compared to vehicle” value in data set [4] (50 mg/kg i.p. once a day, luciferase signal 7 days post-infection) is on record as more than 3 log. The “rescue of growth by IPP” value in data set [5] is “supports growth of P. falciparum treated with RCB-185 at all concentrations tested”. Also, the “fold more resistant, had1 versus WT parasites” value in [6] (had1 IC50 versus WT IC50) came to 3.8 fold. Moreover, the “reduction in MEcPP levels” value in data set [7] (1× the IC50 value of 18.3 nM) is listed as 3.0 fold; in data set [7] (7.5× the IC50 value of 18.3 nM) it was 5.7 fold. In data set [7] (10 h treatment, 1× or 7.5× IC50), the “DOXP levels versus untreated” value is “no significant difference”. Also, in data set [7] (10 h treatment, limit of detection 1.25 ng/mL), the CDP-ME levels result is “below the limits of detection”. The MEP levels result in [7] (10 h treatment, limit of detection 12.5 ng/ml) is “below the limits of detection”. Besides, the “fold lower IC50 than FSM” value in data set [9] (3D7, RCB-185 versus FSM) turned out to be 50 fold. The killing of gametocytes result in [10] is “failure of RCB-185 to kill gametocytes”.
For the compound `C[C@@H]1CC[C@H]2[C@@H](C)C(=O)O[C@@H]3O[C@@]4(C)CC[C@@H]1[C@]32OO4` [artemisinin, reference compound], inhibition in data set [9] (setting [17]) was half-maximal at 10.4 ± 1.6 nM (IC50).
As for `O=CN(O)CCCP(=O)(O)O` [FSM, fosmidomycin, reference compound], the IC50 in data set [1] (Plasmodium falciparum) is 1240 ± 189 nM; in data set [2] (Plasmodium falciparum) it was 2180 ± 353 nM; in data set [3] (Plasmodium falciparum), 837 ± 141 nM; in data set [6] (Plasmodium falciparum), 5350 ± 831 nM; in [8] (Plasmodium falciparum), 863 ± 248 nM; in data set [9] (setting [17]), 1020 ± 77.8 nM. The concentration for half-maximal inhibition (IC50) turned out to be 1160 ± 158 nM in data set [9] (Plasmodium falciparum, parent strain 3D7 (WT) in had1 comparison, FIG. 3, mean±SEM) and 1340 ± 247 nM in data set [12] (Plasmodium falciparum). The LD50 in [13] and in data set [15] was > 11,000 mg/kg throughout. Besides, in data set [5], the “rescue of growth by IPP” value is reported as “rescues”. Besides, the serum half-life in data set [14] (in vivo) is on record as 1.87 h. Further, the bioavailability in data set [14] (oral dosing) is 20-40%. For the same compound, the “tolerability in human patients” value in data set [16] (human, in vivo) was “well-tolerated”. Further, the parasite clearance in data set [16] (mean±standard deviation) is 44 ± 18 h.
`CCN(CC)CCCC(C)Nc1ccnc2cc(Cl)ccc12` (stereo not shown) [chloroquine, reference compound]: in data set [4] (20 mg/kg i.p. once a day, 7 days post-infection), the “luciferase signal (parasite burden)” value is on record as “below the limit of detection”.
